Laboratory results taken from patent US8980833B2, “Tubulysine derivatives” (priority 2007, dated 2015).
Read-outs that look alike come from different tables or passages of the source.

Assays:
Assay type in all cases: cell-based
HT-29 (colon) cells = experiment: MTS cell survival assay, HT-29 (colon); settings: 48 hours incubation, read-out: IC50 cell line HT-29
Experimental: (§1) Seed 96-well plates at a concentration of 5000 cells/well in a volume of 100 μl with A2780 (ovarian), HT-29 (colon), MDA-MB-231 (breast), NCI-H1299 (non-small cell lung, MCF-7 (breast) cells or any other available cancer cell line. Incubate for 24 hours at 37° C.
(§2) Prepare a stock solution of Tubulysin derivative by dissolving at 10 mg/ml in methanol. Prepare dilutions of 1 mg/ml in methanol and 17 μg/ml (20 μM) in cell culture medium, and make serial 10-fold dilutions down to 2 pM in cell culture medium.
(§3) Add 100 μl of Tubulysin to triplicate wells for a final dose range of 1 pM to 10 μM. Reserve three wells for “untreated” cells and three wells of medium alone as a “blank”. Incubate plates at 37° C. for 48 hours.
(§4) Prepare MTS assay reagent by diluting CellTiter 96 AQueous One Solution (Promega) 5-fold into PBS/glucose (4.5 g/L). Aspirate cell culture medium. Aliquot 100 μl of MTS reagent to each well. Incubate at 37° C. for 1-2 hours depending on the cell line.
(§5) Shake the plates for 5 minutes and measure the absorbance at 485 nm using a plate reader (e.g. Tecan). Enter the raw data into an excel spreadsheet to obtain the % cell survival for each cell line. Graph dose (nM) vs. % cell survival and estimate IC50s from the graphs.
(§6) Use a 4-parameter logistic fit to obtain IC50 values: y=(a−d)/(1+(x/c)^b)+d • where • x=dose • y=% cell survival • a=lower asymptote • b=slope • c=IC50 • d=upper asymptote
(§7) Enter values for x and y. Estimate values for a, b, c, and d. Run the solver tool on the sum of squared errors cell. Minimize the sum of squared errors by varying parameters a through d. Obtain the IC50 (nM) from parameter c.

A2780 (ovarian) cells = experiment: MTS cell survival assay, A2780 (ovarian); settings: 48 hours incubation, read-out: IC50 cell line A2780
Experimental: as §1, §2, §3, §4, §5, §6, §7

MCF-7 (breast) cells = experiment: MTS cell survival assay, MCF-7 (breast); settings: read-out: IC50 cell line MCF-7
Experimental: as §1, §2, §3, §4, §5, §6, §7

[1] = tested on: NCI-H1299 (non-small cell lung) cells; experiment: MTS cell survival assay, NCI-H1299 (non-small cell lung); settings: Homo sapiens, 48 hours incubation, read-out: IC50 cell line NCI-H1299
Experimental: as §1, §2, §3, §4
Shake the plates for 5 minutes and measure the absorbance at 485 nm using a plate reader (e.g. Tecan). Enter the raw data into an excel spreadsheet to obtain the % cell survival for each cell line. Graph dose (nM) vs. % cell survival and estimate IC50s from the graphs. […]

[2] = Homo sapiens, MCF7, 48 hours incubation

Row | Structure (SMILES) | IC50 (HT-29 (colon) cells; Homo sapiens) | IC50 (MCF-7 (breast) cells; [2]) | IC50 (A2780 (ovarian) cells; Homo sapiens) | also measured
1 | CC[C@H](C)C(NC(=O)C1CCCCN1C)C(=O)N(COC(=O)CC(C)C)[C@H](C[C@@H](OC(C)=O)c1nc(C(=O)N[C@@H](Cc2ccc(O)cc2)C[C@H](C)C(=O)O)cs1)C(C)C (stereo partly shown) |  |  |  | IC50 (HT-29 (colon) cells): 0.75 nM; IC50 (A2780 (ovarian) cells): 0.8 nM; IC50 (MCF-7 (breast) cells; 48 hours incubation): 0.6 nM
2 | CC[C@H](C)C(NC(=O)C1CCCCN1C)C(=O)N(CC)[C@H](C[C@@H](O)c1nc(C(=O)N[C@H](CCN)Cc2ccc(F)cc2)cs1)C(C)C (stereo partly shown) | 23 nM | 15.2 nM |  | 
3 | CC(=O)O[C@H](C[C@H](C(C)C)N(COC(=O)c1ccccc1)C(=O)C(NC(=O)C1CCCCN1C)C(C)C)c1nc(C(=O)N[C@H](CCC(=O)O)Cc2ccc(F)cc2)cs1 (stereo partly shown) | 0.45 nM | 0.4 nM |  | 
4 | CCCN(C(=O)C(NC(=O)C1CCCCN1C)[C@@H](C)CC)[C@H](C[C@@H](OC(C)=O)c1nc(C(=O)N[C@H](CCC(=O)O)Cc2ccc(F)cc2)cs1)C(C)C (stereo partly shown) | 0.49 nM |  | 0.3 nM | 
5 | CC[C@H](C)C(NC(=O)C1CCCCN1C)C(=O)N(C)[C@H](C[C@@H](OC(C)=O)c1nc(C(=O)N[C@@H](Cc2ccc(F)cc2)C[C@H](C)C(=O)O)cs1)C(C)C (stereo partly shown) | 3 nM |  | 0.8 nM | IC50 [1]: 1.93 nM
6 | CCCN(C(=O)C(NC(=O)C1CCCCN1C)[C@@H](C)CC)[C@H](C[C@@H](OC(C)=O)c1nc(C(=O)N[C@@H](Cc2ccc(-c3ccccc3)cc2)C[C@H](C)C(=O)O)cs1)C(C)C (stereo partly shown) | 0.28 nM | 0.4 nM |  | 
7 | CC[C@H](C)C(NC(=O)C1CCCN1C)C(=O)N(C)[C@H](C[C@@H](OC(C)=O)c1nc(C(=O)N[C@@H](Cc2ccc(N(C)C)cc2)C[C@H](C)C(=O)O)cs1)C(C)C (stereo partly shown) | 2.1 nM |  | 0.7 nM | 
8 | CCCN(C(=O)C(NC(=O)C1CCCCN1C)[C@@H](C)CC)[C@H](CCc1nc(C(=O)N[C@H](CCCO)Cc2ccccc2)cs1)C(C)C (stereo partly shown) | 4.3 nM |  | 1.6 nM | 
9 | CC[C@H](C)C(NC(=O)C1CCCCN1C)C(=O)N(C)[C@H](C[C@@H](OC(C)=O)c1nc(C(=O)N[C@@H](Cc2ccc(OC)cc2)C[C@H](C)C(=O)O)cs1)C(C)C (stereo partly shown) | 2 nM | 0.6 nM | 0.8 nM | 
10 | CCCCCN(C(=O)C(NC(=O)C1CCCCN1C)[C@@H](C)CC)[C@H](C[C@@H](OC(C)=O)c1nc(C(=O)N[C@@H](Cc2ccc(F)cc2)C[C@H](C)C(=O)O)cs1)C(C)C (stereo partly shown) | 0.35 nM | 0.6 nM |  | 
11 | CC[C@H](C)C(NC(=O)C1CCCCN1C)C(=O)N(C)[C@H](C[C@@H](OC(C)=O)c1nc(C(=O)N[C@@H](Cc2ccc(-c3ccccc3)cc2)C[C@H](C)C(=O)O)cs1)C(C)C (stereo partly shown) | 2.3 nM |  | 1.4 nM | 
12 | CCCCCCN(C(=O)C(NC(=O)C1CCCCN1C)[C@@H](C)CC)[C@H](C[C@@H](OC(C)=O)c1nc(C(=O)N[C@@H](Cc2ccc(OC)cc2)C[C@H](C)C(=O)O)cs1)C(C)C (stereo partly shown) | 0.43 nM |  |  | 
13 | CC[C@H](C)C(NC(=O)C1CCCCN1C)C(=O)N(COCC(C)C)[C@H](C[C@@H](OC(C)=O)c1nc(C(=O)N[C@@H](Cc2ccc(F)cc2)C[C@H](C)C(=O)O)cs1)C(C)C (stereo partly shown) | 3.5 nM | 1.1 nM | 0.9 nM | 
14 | CCCN(C(=O)C(NC(=O)C1CCCCN1C)[C@@H](C)CC)[C@H](CCc1nc(C(=O)N[C@H](CCC(=O)O)Cc2ccccc2)cs1)C(C)C (stereo partly shown) | 3.1 nM |  | 1.1 nM | 
15 | CC[C@H](C)C(NC(=O)C1CCCN1C)C(=O)N(C)[C@H](C[C@@H](OC(C)=O)c1nc(C(=O)N[C@@H](Cc2ccc(F)cc2)C[C@H](C)C(=O)O)cs1)C(C)C (stereo partly shown) | 3.1 nM | 1.1 nM |  | 
16 | CCCN(C(=O)C(NC(=O)C1CCCCN1C)[C@@H](C)CC)[C@H](C[C@@H](OC(C)=O)c1nc(C(=O)N[C@@H](Cc2ccc(F)cc2)C[C@H](C)C(=O)O)cs1)C(C)C (stereo partly shown) | 0.48 nM | 0.4 nM | 0.3 nM | IC50 [1]: 0.52 nM
